Results reported in ChEMBL document CHEMBL2406945, “Integrated Synthesis and Testing of Substituted Xanthine Based DPP4 Inhibitors: Application to Drug Discovery” (ACS Med Chem Lett, 2013).

Key:
[1] = target: Dipeptidyl peptidase 4 (Sus scrofa) (UniProt P22411); assay: Inhibition of porcine DPP4 assessed as residual enzyme activity using H-Gly-Pro-AMC as substrate by fluorescence assay
Dipeptidyl peptidase 4 [2] = target: T1, Dipeptidyl peptidase 4 (Sus scrofa, UniProt P22411); assay: Inhibition of porcine DPP4
T1 sequence (P22411 whole entry): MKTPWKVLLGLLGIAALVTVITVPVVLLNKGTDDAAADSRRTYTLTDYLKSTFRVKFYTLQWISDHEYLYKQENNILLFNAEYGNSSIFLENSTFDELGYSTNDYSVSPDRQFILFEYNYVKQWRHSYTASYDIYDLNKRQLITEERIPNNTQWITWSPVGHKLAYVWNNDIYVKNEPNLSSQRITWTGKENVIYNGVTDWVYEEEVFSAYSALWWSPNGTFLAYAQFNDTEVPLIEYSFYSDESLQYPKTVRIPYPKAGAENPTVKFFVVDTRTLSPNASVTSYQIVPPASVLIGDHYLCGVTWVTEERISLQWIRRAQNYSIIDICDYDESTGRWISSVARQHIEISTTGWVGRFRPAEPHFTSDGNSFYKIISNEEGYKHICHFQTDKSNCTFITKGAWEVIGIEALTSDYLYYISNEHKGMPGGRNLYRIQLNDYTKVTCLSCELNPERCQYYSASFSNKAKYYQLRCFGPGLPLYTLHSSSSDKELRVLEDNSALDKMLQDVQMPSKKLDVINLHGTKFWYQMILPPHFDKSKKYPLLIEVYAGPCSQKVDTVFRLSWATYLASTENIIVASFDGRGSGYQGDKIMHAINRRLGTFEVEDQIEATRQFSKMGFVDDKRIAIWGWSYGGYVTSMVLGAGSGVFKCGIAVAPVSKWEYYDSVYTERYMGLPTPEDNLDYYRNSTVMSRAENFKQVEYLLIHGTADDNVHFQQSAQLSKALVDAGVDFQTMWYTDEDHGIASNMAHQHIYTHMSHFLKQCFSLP

Dipeptidyl peptidase 4 [3] = target: T1, Dipeptidyl peptidase 4; assay: Inhibition of porcine DPP4 using H-Gly-Pro-AMC as substrate by fluorescence assay
Dipeptidyl peptidase 4 [4] = target: Dipeptidyl peptidase 4 (Homo sapiens, UniProt P27487); assay: Inhibition of human DPP4 using H-Gly-Pro-AMC as substrate by fluorescence assay
Chain of Dipeptidyl peptidase 4 (Homo sapiens, UniProt P27487) (P27487 whole entry): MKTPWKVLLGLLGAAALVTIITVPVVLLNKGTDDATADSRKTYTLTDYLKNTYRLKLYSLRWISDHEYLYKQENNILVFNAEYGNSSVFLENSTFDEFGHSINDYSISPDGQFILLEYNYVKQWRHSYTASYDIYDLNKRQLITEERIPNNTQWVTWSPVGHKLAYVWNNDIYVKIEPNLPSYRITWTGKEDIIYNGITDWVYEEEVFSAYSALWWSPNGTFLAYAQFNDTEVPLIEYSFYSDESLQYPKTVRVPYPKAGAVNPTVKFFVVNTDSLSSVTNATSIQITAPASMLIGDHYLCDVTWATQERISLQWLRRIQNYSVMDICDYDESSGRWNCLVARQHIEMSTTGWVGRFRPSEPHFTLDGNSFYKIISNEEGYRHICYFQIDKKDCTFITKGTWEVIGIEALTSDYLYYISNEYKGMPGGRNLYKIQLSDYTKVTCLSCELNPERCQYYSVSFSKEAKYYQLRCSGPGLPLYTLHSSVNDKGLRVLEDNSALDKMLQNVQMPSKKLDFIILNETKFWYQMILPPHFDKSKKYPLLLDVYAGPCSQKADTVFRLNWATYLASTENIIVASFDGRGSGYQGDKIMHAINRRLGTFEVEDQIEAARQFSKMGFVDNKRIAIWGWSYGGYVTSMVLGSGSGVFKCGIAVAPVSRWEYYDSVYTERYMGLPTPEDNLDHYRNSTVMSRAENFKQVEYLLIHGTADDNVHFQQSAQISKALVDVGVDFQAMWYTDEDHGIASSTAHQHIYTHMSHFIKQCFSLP

Chain of Dipeptidyl peptidase 4 (Sus scrofa) (P22411 whole entry, looked up): as the sequence (P22411 whole entry) above

Activity [1] | IC50 (Dipeptidyl peptidase 4 [2]) | IC50 (Dipeptidyl peptidase 4 [3]) | IC50 (Dipeptidyl peptidase 4 [4]) | SMILES
260 nM | – | – | – | CC(C)=CCn1c(OCC(C)(C)CN)nc2c1c(=O)n(C)c(=O)n2C
132 nM | 210 nM | 130 nM | – | CC(C)=CCn1c(N2CCC3CNCC32)nc2c1c(=O)n(C)c(=O)n2C (configuration not stated)
> 7000 nM | – | – | – | CC(C)=CCn1c(O[C@@H]2CCNC2)nc2c1c(=O)n(C)c(=O)n2C
420 nM | – | – | – | CC(C)=CCn1c(O[C@@H](C)CN)nc2c1c(=O)n(CC(=O)c1ccccc1)c(=O)n2C
2.6 nM | 17 nM | 16 nM | – | CC(C)=CCn1c(OC[C@@H]2CCCN2)nc2c1c(=O)n(CC(=O)c1ccccc1)c(=O)n2C
> 8000 nM | – | – | – | CC(C)=CCn1c(O[C@H]2CCNC2)nc2c1c(=O)n(C)c(=O)n2C
6 nM | 9 nM | 6.5 nM | – | CC(C)=CCn1c(OCC(C)(C)CN)nc2c1c(=O)n(CC(=O)c1ccccc1)c(=O)n2C
> 7000 nM | – | – | – | CC(C)=CCn1c(OC[C@H]2CCCN2)nc2c1c(=O)n(C)c(=O)n2C
22 nM | – | – | – | CC(C)=CCn1c(OCCCN)nc2c1c(=O)n(CC(=O)c1ccccc1)c(=O)n2C
6000 nM | – | – | – | CC(C)=CCn1c(N2CC3CCNC3C2)nc2c1c(=O)n(C)c(=O)n2C (configuration not stated)
4 nM | – | – | – | CC(C)=CCn1c(N2CCC[C@H](N)C2)nc2c1c(=O)n(CC(=O)c1ccccc1)c(=O)n2C
> 5000 nM | – | – | – | CC(C)=CCn1c(OC2CCNCC2)nc2c1c(=O)n(C)c(=O)n2C
780 nM | – | – | – | CC(C)=CCn1c(OC[C@H](C)N)nc2c1c(=O)n(C)c(=O)n2C
6 nM | – | – | – | CC(C)=CCn1c(N2CCC[C@H](N)C2)nc2c1c(=O)n(C)c(=O)n2C
275 nM | 1100 nM | 275 nM | > 1000 nM | CC(C)=CCn1c(OC2CCNCC2)nc2c1c(=O)n(CC(=O)c1ccccc1)c(=O)n2C
430 nM | – | – | – | CC(C)=CCn1c(OC[C@@H](N)Cc2ccccc2)nc2c1c(=O)n(C)c(=O)n2C
11 nM | – | – | – | CC(C)=CCn1c(N2CCNCC2)nc2c1c(=O)n(CC(=O)c1ccccc1)c(=O)n2C
0.7 nM | < 40 nM | 0.73 nM | – | CC(C)=CCn1c(N2CCC[C@@H](N)C2)nc2c1c(=O)n(CC(=O)c1ccccc1)c(=O)n2C
173 nM | – | – | – | CC(C)=CCn1c(N2CCNCC2)nc2c1c(=O)n(C)c(=O)n2C
1600 nM | – | – | – | CC(C)=CCn1c(OC[C@@H]2CCCN2)nc2c1c(=O)n(C)c(=O)n2C
580 nM | 2500 nM | 705 nM | – | CC(C)=CCn1c(OC[C@H]2CCCN2)nc2c1c(=O)n(CC(=O)c1ccccc1)c(=O)n2C
11 nM | – | – | – | CC(C)=CCn1c(N2CCC[C@@H](N)C2)nc2c1c(=O)n(C)c(=O)n2C
269 nM | – | – | – | CC(C)=CCn1c(N2CC3CCCNC3C2)nc2c1c(=O)n(CC(=O)c1ccccc1)c(=O)n2C (configuration not stated)
> 24500 nM | – | – | – | CC(C)=CCn1c(N2CC3CCCNC3C2)nc2c1c(=O)n(C)c(=O)n2C (configuration not stated)
